This is an account of results in patent publication US20150017673A1, “COMPOSITIONS AND METHODS FOR DRUG-SENSITIZATION OR INHIBITION OF A CANCER CELL” (priority 2012, published 2015).

One assay concerns lymphoma cell line G3. Description: Cell growth assay (resazurin fluorescence) on CHOP-resistant G3 NHL cells. Format: cell-based, human. The note with it: for Magnitude of potentiation in combination with doxorubicin: G3, lymphoma B cells; for pIC50: analog alone, read-out: IC50; for pIC50 / Fold increase in potency over DOX alone / IC50: lymphoma cell line G3; for IC50: with 1 μM doxorubicin, read-out: IC50 (μM) with doxorubicin (1 μM). On the procedure: (§1) Compositions were tested on CHOP-resistant G3 NHL cells that had been cultivated in RPMI medium for five days. Prior to assay, the cells were counted by haemocytometer and cell concentration standardized to 625,000 cells/ml. Test drugs were solubilized in 100% DMSO and then diluted to final assay concentration with 0.1M phosphate buffered saline (PBS) and a final DMSO concentration of 0.5%. Cells were added to assay plates containing the test drugs (rifabutin+148 ng/ml, 74 ng/ml, 37 ng/ml, or 0 ng/ml doxorubicin) and allowed to incubate for 96 hours at 37° C. and 5% CO2. The metabolic dye rezasurin was added to the wells of the assay plate at a final concentration of 20 μg/ml and the plates were incubated for an additional 24 hours. The plates were then read in a BMG Polarstar plate reader at wavelength (573-605) and the data plotted as OD versus increasing dilutions (i.e. decreasing total amounts) of rifabutin derivative concentration.
(Resazurin is reduced to fluorescent resorufin, in cell work by metabolically active cells.)

For assay [1], the system named is multi-drug-resistant breast cancer cell line MDA-MB-231. Put plainly: Cell growth assay on MDA-MB-231 cells. Format: cell-based. As to conditions: for Magnitude of potentiation in combination with doxorubicin: MDA-MB-231, breast carcinoma. On the procedure: as §1
(§2) In these experiments, the following cell lines were used: CHOP-resistant NHL cell line G3, CHOP-sensitive NHL cell line CRL2631, the multi-drug resistant sarcoma cell line MES-SA-Dx5; multi-drug-resistant breast cancer cell line MDA-MB-231, multi-drug resistant ovarian carcinoma cell line SK-OV3, multi-drug resistant ovarian cancer cell line NCI/ADR-RES, drug-sensitive ovarian cancer cell line OVCAR-5, and multi-drug resistant ovarian cancer cell line OVCAR-3.
(§3) Additional cell lines used include: ovarian cancer OVCAR-8, T lymphoblastoid leukemia MOLT-4, dexamethasone-resistant multiple myeloma MM.1R, myeloid leukemia cells HL-60, osteosarcoma cells U-2 OS, and myeloma RPMI 8226.

Assay [2] deals with multi-drug resistant ovarian carcinoma cell line SK-OV3. Description: Cell growth assay on SK-OV3 cells. Format: cell-based, human. The note with it: SK-OV3, ovarian carcinoma. The protocol: as §1
(§4) In these experiments, the following cell lines were used: CHOP-resistant NHL cell line G3, CHOP-sensitive NHL cell line CRL2631, the multi-drug resistant sarcoma cell line MES-SA-Dx5; multi-drug-resistant breast cancer cell line MDA-MB-231, multi-drug resistant ovarian carcinoma cell line SK-OV3, multi-drug resistant ovarian cancer cell line NCI/ADR-RES, drug-sensitive ovarian cancer cell line OVCAR-5, and multi-drug resistant ovarian cancer cell line OVCAR-3. […]

Assay [3] deals with multi-drug resistant ovarian cancer cell line OVCAR-3. Description: Cell growth assay on OVCAR-3 cells. As to conditions: OVCAR-3, ovarian carcinoma. Format: cell-based. The protocol: as §1, §4
Assay [4] relates to multi-drug resistant ovarian cancer cell line NCI/ADR-RES. Put plainly: Cell growth assay on NCI/ADR-RES cells. Format: cell-based. The note with it: NCI/ADR-RES, ovarian carcinoma. On the procedure: as §1, §2, §3
The subject of assay [5] is multi-drug resistant sarcoma cell line MES-SA-Dx5. Put plainly: Cell growth assay on MES-SA-Dx5 cells. The note with it: MES-SA-Dx5, uterus sarcoma. Format: cell-based. The protocol:
as §1, §2, §3

In assay [6] the test system is G3 CHOP-resistant NHL cells. The note with it: fourth study. On the procedure:
In a first efficacy study, 6-8 week old female SCID mice (7 mice per treatment arm) were injected subcutaneously on both flanks with 1×10^7 G3 CHOP-resistant NHL cells. Once palpable tumors (about […] size) appeared, therapies (CHOP or CHOP+rifabutin) were started. CHOP was administered at the maximum tolerated dose (cyclophosphamide, 40 mg/kg i.v.; doxorubicin, 3.3 mg/kg i.v.; vincristine, 0.5 mg/kg i.v.; and prednisone, 0.2 mg/kg orally daily for 5 d) weekly for 3 weeks. Rifabutin in an amount of 100 mg/kg was administered on the day of each CHOP treatment and 24-hours later by gavage. Mouse body weight and tumor size were monitored every two days and tumor size measured by caliper. The tumor volume formula (L*W*W)/2 was used to calculate tumor mass.
A second efficacy study was conducted where mice were treated before the appearance of palpable tumors. In that experiment, one week after transplantation of CHOP-resistant G3 cells, one group (7 mice) was treated with CHOP-only and a second group (8 mice) was treated with CHOP+rifabutin.
A third study was conducted in which mice injected with CHOP-resistant G3 cells received reduced dosages of CHOP in combination with 33 mg/kg rifabutin. CHOP+rifabutin was administered weekly beginning one week post-inoculation. Control mice were given no CHOP or rifabutin.
SCID mice were injected with CHOP-resistant G3 cells in the same manner as the first efficacy study above. Treatments began 2 weeks post-inoculation and were administered twice weekly.

In the next assay the test system is ROS in G3 lymphoma cells. Description: Intracellular ROS (CellROX, flow cytometry) in G3 cells. Format: cell-based, human. The note with it: 10 uM, FIG. 40. The protocol:
Cells were then stained with the fluorescent ROS indicator, CellROX, and subjected to flow cytometry to quantitate total intracellular ROS.
The electron transport chain (ETC) is known to be a primary generator of ROS in the cell. Most of the ROS is generated by Complexes I and III of the ETC Inhibition of Complex I results in electrons piling up and leaking to react with oxygen to produce ROS.
All samples were analyzed at the same time in flow cytometry.
(In general: In flow cytometry, cells or beads pass a laser one at a time.)

In assay [7] the test system is drug-sensitive ovarian cancer cell line OVCAR-5. Description: Cell growth assay on OVCAR-5 cells. Format: cell-based. The protocol: as §1, §2, §3

pIC50: −log10 of the molar value. Like-named read-outs stand apart in the source and are kept apart here.

Take `COC1C=COC2(C)Oc3c(C)c(O)c4c(c3C2=N)C2=NC3(CCN(C(=O)NCC(C)C)CC3)NC2=C(NC(=O)C(C)=CC=CC(C)C(O)C(C)C(O)C(C)C(OC(C)=O)C1C)C4=O` (centres unmarked) [RTI-182, 11-deoxy-11-imino-4-deoxy-3,4[2-spiro-[1-(isobutylaminocarbonyl)-piperidin-4-yl]]-(1H)-imidazo-(2,5-dihydro)rifamycin S]: in the assay with lymphoma cell line G3, the “Magnitude of potentiation in combination with doxorubicin” value (shortened to “Magnitude of potentiation”) is “+ (potentiation between 1.2 to 2.0 fold increase)”, the pIC50 was 4.21, the “Fold increase in potency over DOX alone” value was determined as 2.0 fold and the IC50 came out at 1.2 µM. Further, the “Magnitude of potentiation” value in assay [1] was “++ (potentiation between 2.1 to 5 fold increase)”. The “Magnitude of potentiation” value in assay [2] is given as “++ (potentiation between 2.1 to 5 fold increase)”. Further, the “Magnitude of potentiation” value in assay [3] was “+ (potentiation between 1.2 to 2.0 fold increase)”.

For `COC1C=COC2(C)Oc3c(C)c(O)c4c(c3C2O)C2=NC3(CCN(CC(C)C)CC3)NC2=C(NC(=O)C(C)=CC=CC(C)C(O)C(C)C(O)C(C)C(OC(C)=O)C1C)C4=O` (centres unmarked) [RTI-174, 11-deoxy-11-hydroxy-4-deoxy-3,4[2-spiro-[1-(2-methylpropyl)-piperidin-4-yl]]-(1H)-imidazo-(2,5-dihydro)rifamycin S], in the assay with lymphoma cell line G3, the “Magnitude of potentiation” value is “++ (potentiation between 2.1 to 5 fold increase)”, the negative logarithm of the IC50 (pIC50) was 4.29, the “Fold increase in potency over DOX alone” value was 3.7 fold and the IC50 was found to be 0.64 µM. In assay [2], the “Magnitude of potentiation” value is recorded as “+ (potentiation between 1.2 to 2.0 fold increase)”. Moreover, in [3], the “Magnitude of potentiation” value is given as “+ (potentiation between 1.2 to 2.0 fold increase)”. For the same compound, in [4], the “Magnitude of potentiation” value is “+ (potentiation between 1.2 to 2.0 fold increase)”.

As for `Nc1ccn([C@@H]2O[C@H](CO)[C@@H](O)C2(F)F)c(=O)n1` [Gemcitabine, gemcitabine], the pIC50 in [1] (Homo sapiens, therapeutic drug alone, MDA-MB-231, read-out: IC50) was less than 4.49. Also, the IC50 in assay [1] (Homo sapiens, therapeutic drug with Rifabutin, MDA-MB-231, read-out: IC50 (μM) with Rifabutin) was 4.83 µM. Further, the “Fold increase in potency” value in assay [1] (with vs without Rifabutin, MDA-MB-231) is greater than 6.6 fold.

For “11-deoxy-11-imino-4-deoxy-3,4[2-spiro-[1- (ethylaminocarbonyl)-piperidin-4-yl]]-(1H)-imidazo-(2,5- dihydro)rifamycin S [RTI-82]”, in the assay on lymphoma cell line G3, the pIC50 was less than 4.19, the “Fold increase in potency over DOX alone” value is recorded as 0.7 fold and the concentration for half-maximal inhibition (IC50) was 3.5 µM. Besides, the “Magnitude of potentiation” value in [1] is listed as “+++ (potentiation greater than 5 fold increase)”.

For the compound `COC1C=COC2(C)Oc3c(C)c(O)c4c(c3C2=N)C2=NC3(CCN(C(=O)OCC(C)C)CC3)NC2=C(NC(=O)C(C)=CC=CC(C)C(O)C(C)C(O)C(C)C(OC(C)=O)C1C)C4=O` (centres unmarked) [RTI-81, 11-deoxy-11-imino-4-deoxy-3,4[2-spiro-[1-(isobutyloxycarbonyl)-piperidin-4-yl]]-(1H)-imidazo-(2,5-dihydro)rifamycin S], in the assay on lymphoma cell line G3, the “Magnitude of potentiation” value is given as “+++ (potentiation greater than 5 fold increase)”, the pIC50 is less than 4.19 and the IC50 amounted to 0.3 µM. Besides, the “Magnitude of potentiation” value in assay [5] is reported as “++ (potentiation between 2.1 to 5 fold increase)”. In assay [2], the “Magnitude of potentiation” value is “+++ (potentiation greater than 5 fold increase)”. The “Magnitude of potentiation” value in assay [4] is recorded as “+ (potentiation between 1.2 to 2.0 fold increase)”. In [6] (DOX 3.3 mg/kg iv + RTI-81 10 mg/kg by gavage twice weekly), the “longer life than doxorubicin only” value is recorded as 27%. In assay [6] (doxorubicin+RTI-81 group), the mean lifespan came to 42.6 and the median lifespan is on record as 42.

As for `C=C(C)[C@H]1Cc2c(ccc3c2O[C@@H]2COc4cc(OC)c(OC)cc4[C@@H]2C3=O)O1` [Rotenone, rotenone], the ROS levels result in the assay with ROS in G3 lymphoma cells was “induced ROS”.

Turning to `COC1C=COC2(C)Oc3c(C)c(O)c4c(c3C2=N)C2=NC3(CCN(CCN5CCOCC5)CC3)NC2=C(NC(=O)C(C)=CC=CC(C)C(O)C(C)C(O)C(C)C(OC(C)=O)C1C)C4=O` (centres unmarked) [RTI-53, 11-deoxy-11-imino-4-deoxy-3,4[2-spiro-[1-(2-morpholinoethyl)-piperidin-4-yl]]-(1H)-imidazo-(2,5-dihydro)rifamycin S], in the assay with lymphoma cell line G3, the pIC50 was less than 4.19, the “Fold increase in potency over DOX alone” value is reported as 0.2 fold and the IC50 worked out at 11.8 µM. For the same compound, in [2], the “Magnitude of potentiation” value is on record as “+ (potentiation between 1.2 to 2.0 fold increase)”. For the same compound, the “Magnitude of potentiation” value in [3] is “+ (potentiation between 1.2 to 2.0 fold increase)”.

With `CO[C@H]1/C=C/O[C@@]2(C)Oc3c(C)c(O)c4c(c3C2O)C2=NC3(CCN(C(=O)OCC(C)C)CC3)NC2=C(NC(=O)/C(C)=C\C=C\[C@H](C)[C@H](O)[C@@H](C)[C@@H](O)[C@@H](C)[C@H](OC(C)=O)[C@@H]1C)C4=O` (some centres unmarked) [RTI-175, 11-deoxy-11-hydroxy-4-deoxy-3,4[2-spiro-[1-(isobutyloxycarbonyl)-piperidin-4-yl]]-(1H)-imidazo-(2,5-dihydro)rifamycin S], the “Magnitude of potentiation” value is listed as “++ (potentiation between 2.1 to 5 fold increase)” in the assay on lymphoma cell line G3; “+ (potentiation between 1.2 to 2.0 fold increase)” in assay [5]; “+++ (potentiation greater than 5 fold increase)” in assay [2]; “+ (potentiation between 1.2 to 2.0 fold increase)” in assay [3]; “++ (potentiation between 2.1 to 5 fold increase)” in [7] (OVCAR-5, ovarian carcinoma); “++ (potentiation between 2.1 to 5 fold increase)” in [4]. Further, the “Fold increase in potency over DOX alone” value with lymphoma cell line G3 is given as 2.2 fold.

Regarding `CC(C)C[C@H](NC(=O)[C@H](Cc1ccccc1)NC(=O)c1cnccn1)B(O)O` [Velcade, bortezomib], the negative logarithm of the IC50 (pIC50) in assay [7] (Homo sapiens, therapeutic drug alone, OVCAR-5, read-out: IC50) is 6.77. In addition, the 50% inhibitory concentration (IC50) in assay [7] (Homo sapiens, therapeutic drug with Rifabutin, OVCAR-5, read-out: IC50 (μM) with Rifabutin) amounted to 0.08 µM. In addition, the “Fold increase in potency” value in assay [7] (with vs without Rifabutin, OVCAR-5) turned out to be 2.1 fold.

Regarding `CC(=O)OCOC(=O)CN(CC(=O)OCOC(C)=O)c1ccccc1OCCOc1ccccc1N(CC(=O)OCOC(C)=O)CC(=O)OCOC(C)=O` [BAPTA-AM], the ROS levels entry in the assay on ROS in G3 lymphoma cells is on record as “induced ROS”.

Broadly, the pIC50 is the IC50 on a negative log10 scale, so that one unit is a factor of ten. Usually IC50 stands for the concentration that gives 50% inhibition.
